Consider 3 compounds from paper PMC8059561, “Lowered sensitivity of bitter taste receptors to β-glucosides in bamboo lemurs: an instance of parallel and adaptive functional decline in TAS2R16?” (Proceedings of the Royal Society B: Biological Sciences, 2021).

Some results are limits rather than exact numbers.

One assay addresses T1, TAS2R16 P. simus L144S (Prolemur simus, UniProt A0A8C8ZSN9, L144S).
T1 sequence (A0A8C8ZSN9 1-301 L144S): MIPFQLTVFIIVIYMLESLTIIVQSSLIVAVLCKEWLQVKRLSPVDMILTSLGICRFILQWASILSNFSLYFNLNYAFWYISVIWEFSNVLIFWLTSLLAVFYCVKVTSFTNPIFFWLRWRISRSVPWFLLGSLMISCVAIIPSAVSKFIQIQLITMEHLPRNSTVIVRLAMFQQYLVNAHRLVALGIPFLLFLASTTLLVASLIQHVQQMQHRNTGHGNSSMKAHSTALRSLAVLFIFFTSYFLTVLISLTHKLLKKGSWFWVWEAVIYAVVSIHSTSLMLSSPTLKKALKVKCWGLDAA
The experiment in a line: Calcium assay, single-point mutant P. simus L144S TAS2R16. It is filed as cell-based.

The next assay concerns the target TAS2R16 from L. catta (Lemur catta, UniProt A0A4Y1QJW7). Kind of assay: Calcium assay, HEK293T cells expressing L. catta TAS2R16 with Gα16/gust44. The class given is cell-based. As to conditions: Calcium 4, mean ± s.e.m.
The subject of the next assay is TAS2R16 from H. aureus. The experiment in a line: Calcium assay, HEK293T cells expressing H. aureus TAS2R16 with Gα16/gust44. The class given is cell-based, Hapalemur aureus.
Assay [1] concerns TAS2R16 orthologue of Varecia variegata. Also on record: method as in Itoigawa et al., [8]. Conditions: ref Itoigawa et al., [8]; cited from earlier work.
Assay [2] concerns anc-Bamboo lemur T140A /S144L TAS2R16. Kind of assay: Calcium assay, double mutant anc-Bamboo lemur T140A/S144L (reply to referee). As to conditions: figure not shown. It is filed as cell-based, last common ancestor (LCA) in bamboo lemurs.
A further assay concerns the target TAS2R16 from P. simus (Prolemur simus, UniProt A0A8C8ZSN9). Kind of assay: Calcium assay, HEK293T cells expressing P. simus TAS2R16 with Gα16/gust44. The class given is cell-based.
A further assay deals with TAS2R16 from H. griseus. Kind of assay: Calcium assay, HEK293T cells expressing H. griseus TAS2R16 with Gα16/gust44. It is filed as cell-based, Hapalemur griseus.
[3] abbreviates: HEK293T, Gα16/gust44, Calcium 5, mean ± s.e.m.

Sequence of TAS2R16 from L. catta (A0A4Y1QJW7 1-301): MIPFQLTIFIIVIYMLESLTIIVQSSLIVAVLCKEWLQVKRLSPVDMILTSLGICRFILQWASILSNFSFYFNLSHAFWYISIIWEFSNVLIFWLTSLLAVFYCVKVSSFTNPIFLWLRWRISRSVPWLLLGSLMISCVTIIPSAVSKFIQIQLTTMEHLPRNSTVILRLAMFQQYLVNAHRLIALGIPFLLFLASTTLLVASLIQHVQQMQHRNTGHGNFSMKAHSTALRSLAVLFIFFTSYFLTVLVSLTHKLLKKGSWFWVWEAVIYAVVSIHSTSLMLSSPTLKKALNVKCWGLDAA
Sequence of TAS2R16 from P. simus (A0A8C8ZSN9 1-301): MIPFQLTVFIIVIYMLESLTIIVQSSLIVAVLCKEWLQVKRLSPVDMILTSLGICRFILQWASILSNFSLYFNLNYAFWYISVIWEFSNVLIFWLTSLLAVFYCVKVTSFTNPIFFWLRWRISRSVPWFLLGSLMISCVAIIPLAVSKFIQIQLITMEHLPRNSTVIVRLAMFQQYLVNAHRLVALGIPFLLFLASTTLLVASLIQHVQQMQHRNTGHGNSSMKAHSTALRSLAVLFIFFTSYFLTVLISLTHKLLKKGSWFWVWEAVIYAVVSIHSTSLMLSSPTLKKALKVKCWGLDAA

For `OCc1ccccc1O[C@@H]1O[C@H](CO)[C@@H](O)[C@H](O)[C@H]1O` [salicin], the EC50 (as a rule, the midpoint of the concentration-response curve) at TAS2R16 P. simus L144S is 4.3 ± 0.85 mM; on TAS2R16 from L. catta, 2.1 ± 0.38 mM; in the assay on TAS2R16 from H. aureus (HEK293T, Gα16/gust44, Calcium 4, mean ± s.e.m.), 6.8 ± 1.1 mM; in assay [1], 3.8 mM; on TAS2R16 from P. simus (HEK293T, Gα16/gust44, Calcium 4), above 40 mM. Further, the “responses of double mutant compared to single mutant (anc-Bamboo lemur S144L)” value in assay [2] was “did not show significant reduction”.
As for `OC[C@H]1O[C@@H](Oc2ccc(O)cc2)[C@H](O)[C@@H](O)[C@@H]1O` [arbutin], the “response of TAS2R16 to ligand” value in the assay with TAS2R16 from H. griseus, in the assay on TAS2R16 from H. aureus and at TAS2R16 from P. simus (at the concentrations used in the assays) was “did not show any responses” each time. Also, at TAS2R16 from L. catta, the EC50 is 2.3 ± 0.21 mM.
In the case of `CC(C)(C#N)O[C@@H]1O[C@H](CO)[C@@H](O)[C@H](O)[C@H]1O` [linamarin], the entries for the “Amax (maximal signal amplitude, ΔF/F)” value in the assay with TAS2R16 from H. griseus (setting [3]) and in the assay on TAS2R16 from H. aureus (setting [3]) were 0.33 ± 0.031 and 0.52 ± 0.041, respectively.
